# In patent publication US6521653B2 (priority 1995, dated 2003):
# Test system: Phytophthora infestans
# Test: whole plant or invertebrate
# Assay type: in vivo
# Details: Phytophthora infestans, in Solanum lycopersicum, 72 h, read-out: Efficiency in %, based on the untreated control at an active compound concentration of 50 ppm
row,Structure (SMILES),pest or weed control at 50 ppm
1,Cc1noc(C)c1S(=O)(=O)n1nnc2cc(Cl)ccc21,100%
2,Cc1ccc2c(c1)nnn2S(=O)(=O)c1c(C)noc1C,97%
3,Cc1noc(C)c1S(=O)(=O)n1nnc2cc([N+](=O)[O-])ccc21,100%
4,Cc1noc(C)c1S(=O)(=O)n1nnc2ccccc21,97%
5,Cc1oncc1S(=O)(=O)n1nnc2cc3c(cc21)OC(F)(F)O3 [drawing 103],100%
6,Cc1onc(N)c1S(=O)(=O)n1nnc2cc3c(cc21)OC(F)(F)O3,97%
7,Cc1oncc1S(=O)(=O)n1nnc2c(Br)cc(C(F)(F)F)cc21,98%
8,Cc1onc(N)c1S(=O)(=O)n1nnc2cc(Cl)ccc21,97%
9,Cc1noc(C)c1S(=O)(=O)n1nnc2c(Br)cc(C(F)(F)F)cc21 [drawing 102],89%
10,Cc1noc(C)c1S(=O)(=O)n1nnc2cc3c(cc21)OC(F)(F)C(F)(F)O3 [drawing 100],95%
11,Cc1noc(C)c1S(=O)(=O)n1nnc2cc3c(cc21)OC(F)(F)O3 [drawing 101],99%

# Same assay, conditions: tomato, protective spray, 100 ppm, evaluation 3 days after inoculation
row,Structure (SMILES),"Efficiency in %, based on the untreated control at an active compound concentration of 100 ppm"
1,Cc1oncc1S(=O)(=O)n1nnc2cc3c(cc21)OC(F)(F)O3 [drawing 99],99%
2,Cc1noc(C)c1S(=O)(=O)n1nnc2cc3c(cc21)OC(F)(F)O3 [drawing 96],94%
3,Cc1noc(C)c1S(=O)(=O)n1nnc2c(Br)cc(C(F)(F)F)cc21 [drawing 97],95%
4,Cc1oncc1S(=O)(=O)n1nnc2cc3c(cc21)OC(F)(F)C(F)(F)O3 [drawing 98],94%
5,Cc1noc(C)c1S(=O)(=O)n1nnc2cc3c(cc21)OC(F)(F)C(F)(F)O3 [drawing 95],94%

# Test system: Plasmopara viticola
# Test: Plasmopara test (grapevines)/protective
# Assay type: in vivo
# Details: protective spray, evaluation 6 days after inoculation
# Method: Plasmopara Test (Grapevines)/Protective
# Solvent: 4.7 parts by weight of acetone
# Emulsifier: 0.3 parts by weight of alkylaryl polyglycol ether
# To obtain an expedient preparation of active compound, 1 part by weight of active compound is mixed with the amounts of solvent and emulsifier cited and the concentrate is diluted with water to the desired concentration.
# To test for protective activity, young plants are sprayed with the active compound preparation until dew moist. After the sprayed coating has dried on, the plants are inoculated with an aqueous spore suspension of Plasmopara viticola and then remain for 1 day in a moist chamber at 20 to 22° C. and 100% relative humidity. The plants are then set up for 5 days in a greenhouse at 21° C. and approximately 90% relative humidity. The plants are then moistened and placed in a moist chamber for 1 day.
# The evaluation is performed 6 days after the inoculation. In the evaluation, 0% denotes an efficiency corresponding to that of the untreated control, while an efficiency of 100% denotes that no contamination is observed.
row,Structure (SMILES),"Efficiency in %, based on the untreated control at an active compound concentration of 100 ppm"
1,Cc1noc(C)c1S(=O)(=O)n1nnc2cc3c(cc21)OC(F)(F)C(F)(F)O3 [drawing 111],100%
2,Cc1oncc1S(=O)(=O)n1nnc2cc3c(cc21)OC(F)(F)C(F)(F)O3 [drawing 113],100%
3,Cc1noc(C)c1S(=O)(=O)n1nnc2cc3c(cc21)OC(F)(F)O3 [drawing 112],100%
4,Cc1oncc1S(=O)(=O)n1nnc2cc3c(cc21)OC(F)(F)O3 [drawing 114],100%

# Test system: Penicillium brevicaule
# Test: Material protection test (MIC on malt extract agar)
# Assay type: cell-based
# Details: 336 h, two weeks at 28° C., 60 to 70% relative humidity, read-out: Minimal inhibitory concentration (MIC value) Penicillium brevicaule
# Method: (§1) active compounds of the invention are added at concentrations of 0.1 mg/l to 5000 mg/l to an agar prepared with malt extract. After the agar has solidified, it is infected with pure cultures of Penicillium brevicaule, Chaetomium globosum and Aspergillus niger. After storage for two weeks at 28° C. and 60 to 70% relative humidity, the minimal inhibitory concentration (MIC value) is determined. The MIC value characterizes the lowest concentration of active compound at which there is no growth of the microbial species used.
row,Structure (SMILES),MIC
1,Cc1oncc1S(=O)(=O)n1nnc2cc3c(cc21)OC(F)(F)C(F)(F)O3 [drawing 93],200 µg/mL
2,Cc1noc(C)c1C(=O)n1nnc2cc3c(cc21)OC(F)(F)C(F)(F)O3,200 µg/mL

# Test system: Aspergillus niger
# Test: as above
# Assay type: cell-based
# Details: 336 h, two weeks at 28° C., 60 to 70% relative humidity, read-out: Minimal inhibitory concentration (MIC value) Aspergillus niger
# Method: as §1
row,Structure (SMILES),MIC
1,Cc1oncc1S(=O)(=O)n1nnc2cc3c(cc21)OC(F)(F)C(F)(F)O3 [drawing 93],200 µg/mL
2,Cc1noc(C)c1C(=O)n1nnc2cc3c(cc21)OC(F)(F)C(F)(F)O3,400 µg/mL

# Test system: Chaetomium globosum
# Test: as above
# Assay type: cell-based
# Details: 336 h, two weeks at 28° C., 60 to 70% relative humidity, read-out: Minimal inhibitory concentration (MIC value) Chaetomium globosum
# Method: as §1
row,Structure (SMILES),MIC
1,Cc1oncc1S(=O)(=O)n1nnc2cc3c(cc21)OC(F)(F)C(F)(F)O3 [drawing 93],100 µg/mL
2,Cc1noc(C)c1C(=O)n1nnc2cc3c(cc21)OC(F)(F)C(F)(F)O3,100 µg/mL
